For 24 molecules, IC50 results are on record in patent US11420958B2, “Aryl and heteroaryl substituted indole compounds” (BRISTOL-MYERS SQUIBB COMPANY, priority 2017, dated 2022).

Holding throughout (format): cell-based
The target in test [1] is human TLR7 (Homo sapiens (Human), UniProt Q9NYK1). In words: TLR7 inhibition reporter assay (HEK-Blue, SEAP). Conditions: HEK-Blue cells overexpressing human TLR7, gardiquimod 7.5 μM stimulation. As to the method: (§1) TLR7/8/9 Inhibition Reporter Assays
Sequence of human TLR7 (Q9NYK1 27-1049): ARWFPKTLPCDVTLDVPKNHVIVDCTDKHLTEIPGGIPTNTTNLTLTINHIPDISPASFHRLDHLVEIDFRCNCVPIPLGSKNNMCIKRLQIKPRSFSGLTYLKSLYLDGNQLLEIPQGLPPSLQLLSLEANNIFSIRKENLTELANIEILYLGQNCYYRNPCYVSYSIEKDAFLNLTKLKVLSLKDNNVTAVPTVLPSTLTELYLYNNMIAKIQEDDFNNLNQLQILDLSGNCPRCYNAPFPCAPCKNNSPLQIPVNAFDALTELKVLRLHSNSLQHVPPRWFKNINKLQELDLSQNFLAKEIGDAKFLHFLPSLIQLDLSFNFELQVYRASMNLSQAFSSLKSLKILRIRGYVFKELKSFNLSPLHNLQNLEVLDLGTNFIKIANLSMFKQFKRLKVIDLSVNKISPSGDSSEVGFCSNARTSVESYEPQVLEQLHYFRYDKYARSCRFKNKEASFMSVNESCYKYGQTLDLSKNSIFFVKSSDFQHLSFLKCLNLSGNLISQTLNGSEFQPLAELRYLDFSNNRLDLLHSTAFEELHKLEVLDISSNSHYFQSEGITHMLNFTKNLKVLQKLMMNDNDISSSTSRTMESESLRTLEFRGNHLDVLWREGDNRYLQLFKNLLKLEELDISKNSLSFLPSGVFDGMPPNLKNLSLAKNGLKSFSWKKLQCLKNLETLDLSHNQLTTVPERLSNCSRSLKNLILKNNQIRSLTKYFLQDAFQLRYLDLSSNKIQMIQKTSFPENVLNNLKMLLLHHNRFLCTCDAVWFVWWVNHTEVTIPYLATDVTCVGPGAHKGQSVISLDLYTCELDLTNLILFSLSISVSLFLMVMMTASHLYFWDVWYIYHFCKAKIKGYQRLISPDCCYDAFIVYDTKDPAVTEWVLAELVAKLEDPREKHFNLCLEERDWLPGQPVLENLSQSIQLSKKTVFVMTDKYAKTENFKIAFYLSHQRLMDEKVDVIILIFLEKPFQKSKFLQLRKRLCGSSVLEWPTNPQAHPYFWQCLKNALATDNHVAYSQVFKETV
(§2) HEK-Blue™-cells (Invivogen) overexpressing human TLR7, TLR8 or TLR9 receptors were used for screening inhibitors of these receptors using an inducible SEAP (secreted embryonic alkaline phosphatase) reporter gene under the control of the IFN-β minimal promoter fused to five NF-κc Band AP-1-binding sites. Briefly, cells are seeded into Greiner 384 well plates (15000 cells per well for TLR7, 20,000 for TLR8 and 25,000 for TLR9) and then treated with test compounds in DMSO to yield a final dose response concentration range of 0.05 nM-50 μM. After a 30 minute compound pre-treatment at room temperature, the cells are then stimulated with a TLR7 ligand (gardiquimod at a final concentration of 7.5 μM), TLR8 ligand (R848 at a final concentration of 15.9 μM) or TLR9 ligand (ODN2006 at final concentration of 5 nM) to activate NF-κB and AP-1 which induce the production of SEAP. After a 22 hour incubation at 37° C., 5% CO2, SEAP levels are determined with the addition of HEK-Bue™ Detection reagent (Invivogen), a cell culture medium that allows for detection of SEAP, according to manufacturer's specifications. The percent inhibition is determined as the % reduction in the HEK-Blue signal present in wells treated with agonist plus DMSO alone compared to wells treated with a known inhibitor.

Test [2] has as its target human TLR8 (Homo sapiens (Human), UniProt Q9NR97). In words: TLR8 inhibition reporter assay (HEK-Blue, SEAP). The settings on record: HEK-Blue cells overexpressing human TLR8, R848 15.9 μM stimulation. As to the method:
as §1, §2

Test [3] addresses human TLR9 (Homo sapiens (Human), UniProt Q9NR96). In words: TLR9 inhibition reporter assay (HEK-Blue, SEAP). Conditions: HEK-Blue cells overexpressing human TLR9, ODN2006 5 nM stimulation. As for the experimental part:
as §1, §2
Background: A reporter such as luciferase makes a cellular process visible.

Molecules are shown by their SMILES. pIC50: −log10 of the molar value. Where only a bound is given, the exact number is not on record here.

Sequence of human TLR9 (Q9NR96 26-1032): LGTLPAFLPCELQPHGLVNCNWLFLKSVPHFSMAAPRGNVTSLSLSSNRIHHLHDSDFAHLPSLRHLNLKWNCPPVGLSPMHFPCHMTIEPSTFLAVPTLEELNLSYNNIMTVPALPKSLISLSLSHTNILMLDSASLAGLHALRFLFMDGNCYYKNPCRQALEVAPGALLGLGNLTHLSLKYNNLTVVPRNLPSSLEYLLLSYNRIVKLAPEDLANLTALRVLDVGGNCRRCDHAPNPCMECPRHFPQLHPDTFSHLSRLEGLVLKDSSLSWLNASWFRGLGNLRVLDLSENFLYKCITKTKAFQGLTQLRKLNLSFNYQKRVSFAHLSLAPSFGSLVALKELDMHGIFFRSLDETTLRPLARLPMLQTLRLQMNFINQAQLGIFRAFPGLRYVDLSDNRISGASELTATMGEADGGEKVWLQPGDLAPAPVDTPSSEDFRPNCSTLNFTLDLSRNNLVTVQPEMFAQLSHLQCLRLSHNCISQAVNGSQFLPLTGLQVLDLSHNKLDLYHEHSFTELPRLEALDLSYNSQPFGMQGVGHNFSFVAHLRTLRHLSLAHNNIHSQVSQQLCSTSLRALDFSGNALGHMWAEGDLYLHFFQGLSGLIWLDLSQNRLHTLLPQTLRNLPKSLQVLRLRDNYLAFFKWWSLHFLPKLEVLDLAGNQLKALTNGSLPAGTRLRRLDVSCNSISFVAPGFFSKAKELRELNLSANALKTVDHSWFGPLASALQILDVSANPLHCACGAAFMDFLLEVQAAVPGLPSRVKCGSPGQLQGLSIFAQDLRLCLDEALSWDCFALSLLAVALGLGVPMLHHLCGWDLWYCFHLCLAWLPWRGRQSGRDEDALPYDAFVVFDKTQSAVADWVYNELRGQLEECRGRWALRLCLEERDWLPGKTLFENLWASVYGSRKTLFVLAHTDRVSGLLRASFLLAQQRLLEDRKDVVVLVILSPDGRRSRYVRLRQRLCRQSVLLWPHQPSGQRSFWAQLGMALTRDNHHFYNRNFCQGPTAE
Sequence of human TLR8 (Q9NR97 27-1041): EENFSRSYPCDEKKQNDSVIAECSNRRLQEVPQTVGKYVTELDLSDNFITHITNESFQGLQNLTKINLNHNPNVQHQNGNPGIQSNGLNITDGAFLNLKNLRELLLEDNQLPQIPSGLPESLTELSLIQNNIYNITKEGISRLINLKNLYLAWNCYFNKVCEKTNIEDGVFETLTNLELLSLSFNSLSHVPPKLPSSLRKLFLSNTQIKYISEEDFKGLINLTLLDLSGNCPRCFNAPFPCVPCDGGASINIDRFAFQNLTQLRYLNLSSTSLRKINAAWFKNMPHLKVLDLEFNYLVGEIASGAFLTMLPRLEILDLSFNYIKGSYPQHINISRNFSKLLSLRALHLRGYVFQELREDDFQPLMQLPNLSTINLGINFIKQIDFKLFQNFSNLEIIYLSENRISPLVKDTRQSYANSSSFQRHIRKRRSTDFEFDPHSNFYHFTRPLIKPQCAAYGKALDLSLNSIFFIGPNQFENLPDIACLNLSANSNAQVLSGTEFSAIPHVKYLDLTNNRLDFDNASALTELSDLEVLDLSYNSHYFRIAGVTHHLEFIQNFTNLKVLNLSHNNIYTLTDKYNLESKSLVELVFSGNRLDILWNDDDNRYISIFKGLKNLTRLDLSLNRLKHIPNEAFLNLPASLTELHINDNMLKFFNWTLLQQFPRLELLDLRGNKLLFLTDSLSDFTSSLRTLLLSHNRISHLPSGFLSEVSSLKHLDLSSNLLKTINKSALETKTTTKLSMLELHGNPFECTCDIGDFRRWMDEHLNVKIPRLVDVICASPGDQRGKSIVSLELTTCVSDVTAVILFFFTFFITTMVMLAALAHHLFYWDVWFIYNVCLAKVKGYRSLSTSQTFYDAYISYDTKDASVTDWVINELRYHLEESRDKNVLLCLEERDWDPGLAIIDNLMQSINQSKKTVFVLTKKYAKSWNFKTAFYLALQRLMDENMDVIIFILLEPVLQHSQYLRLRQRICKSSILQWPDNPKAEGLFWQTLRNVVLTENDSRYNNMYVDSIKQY

Regarding `COc1ccc(-c2[nH]c3ccc(-c4ccc(C5=CCNCC5)cc4)cc3c2C)cc1OC` [Example 408, 2-(3,4-dimethoxyphenyl)-3-methyl-5-(4-(1,2,3,6-tetrahydropyridin-4-yl)phenyl)-1H-indole], the pIC50 was 5.06 in test [1], less than 4.30 in test [2] and 6.14 in test [3].
For `COc1ccc(-c2[nH]c3ccc(-c4nnc(C(=O)N5CCC(N6CCOCC6)C5)o4)cc3c2C(C)C)cc1OC` (stereo not drawn) [Example 99, (5-(2-(3,4-dimethoxyphenyl)-3-isopropyl-1H-indol-5-yl)-1,3,4-oxadiazol-2-yl)(3-morpholinopyrrolidin-1-yl)methanone], the pIC50 in test [1] was 6.25; in test [2], 7.07; in test [3], 4.79.
As for `CC(C)c1c(-c2ccnc3[nH]ncc23)[nH]c2ccc(-c3c[nH]nc3C(F)(F)F)cc12` [Example 438, 4-(3-isopropyl-5-(3-(trifluoromethyl)-1H-pyrazol-4-yl)-1H-indol-2-yl)-1H-pyrazolo[3,4-b]pyridine], the pIC50 in test [1] is 6.02; in test [2], 8.00; in test [3] it was 4.42.
With `Cc1cc(-c2[nH]c3ccc(-c4nccs4)cc3c2C(C)C)ccn1` [Example 171, 2-(3-isopropyl-2-(2-methylpyridin-4-yl)-1H-indol-5-yl)thiazole], the pIC50 is 6.80 in test [1], 7.72 in test [2] and less than 4.30 in test [3].
In the same order, the values of `COc1ccc(-c2[nH]c3ccc(-c4cccc(C(=O)N5CCC(O)CC5)c4)cc3c2CC(F)(F)F)cc1OC` [Example 31, (3-(2-(3,4-dimethoxyphenyl)-3-(2,2,2-trifluoroethyl)-1H-indol-5-yl)phenyl)(4-hydroxypiperidin-1-yl)methanone] are 6.05, 6.51 and 4.59.
Take `Cc1cc(-c2[nH]c3ccc(-c4nnc(C5CN6CCC5CC6)o4)cc3c2C(C)C)cc(C)n1` (stereo not drawn) [Example 250, 2-(2-(2,6-dimethylpyridin-4-yl)-3-isopropyl-1H-indol-5-yl)-5-(quinuclidin-3-yl)-1,3,4-oxadiazole]: the pIC50 in test [1] was 8.47; in test [2] it was 8.68; in test [3] it was 6.95.
For `CNC(=O)CN1CCc2cc(-c3ccc4[nH]c(-c5cc(C)nc(C)c5)c(C(C)C)c4c3)sc2C1` [Example 330, 2-(2-(2-(2,6-dimethylpyridin-4-yl)-3-isopropyl-1H-indol-5-yl)-4,7-dihydrothieno[2,3-c]pyridin-6(5H)-yl)-N-methylacetamide] the same measures were 7.64, 7.80 and 5.66.
`COc1ccc(-c2[nH]c3ccc(-c4nnc(C[C@@H]5CCCN5)o4)cc3c2C(C)C)cc1OC` [Example 51, (S)-2-(2-(3,4-dimethoxyphenyl)-3-isopropyl-1H-indol-5-yl)-5-(pyrrolidin-2-ylmethyl)-1,3,4-oxadiazole]: the results for the pIC50 in test [1], in test [2] and in test [3] were 7.22, 8.11 and 5.97, respectively.
`CCN(CC)C(=O)C1CCCN(C(=O)c2nnc(-c3ccc4[nH]c(-c5ccc(OC)c(OC)c5)c(C(C)C)c4c3)o2)C1` (stereo not drawn) [Example 89, 1-(5-(2-(3,4-dimethoxyphenyl)-3-isopropyl-1H-indol-5-yl)-1,3,4-oxadiazole-2-carbonyl)-N,N-diethylpiperidine-3-carboxamide]: the pIC50 was 5.83 in test [1], 6.66 in test [2] and 5.02 in test [3].
In the same order, the values of `Cc1cc(-c2[nH]c3ccc(-c4nnc(C5CCNCC5)[nH]4)cc3c2C(C)C)ccn1` [Example 196, 3-isopropyl-2-(2-methylpyridin-4-yl)-5-(5-(piperidin-4-yl)-4H-1,2,4-triazol-3-yl)-1H-indole] are 6.56, 7.08 and 5.16.
As to `Cc1cc(-c2[nH]c3ccc(-c4nc(C(=O)NCCCN5CCCC5)co4)cc3c2C(C)C)cc(C)n1` [Example 284, 2-(2-(2,6-dimethylpyridin-4-yl)-3-isopropyl-1H-indol-5-yl)-N-(3-(pyrrolidin-1-yl)propyl)oxazole-4-carboxamide], the negative-log IC50 (pIC50) in test [1] was 7.92; in test [2] it was 8.02; in test [3], 6.25.
Take `COc1ccc(-c2[nH]c3ccc(-c4nnc(CN5CCOCC5)o4)cc3c2C(C)C)cc1OC` [Example 115, 4-((5-(2-(3,4-dimethoxyphenyl)-3-isopropyl-1H-indol-5-yl)-1,3,4-oxadiazol-2-yl)methyl)morpholine]: the pIC50 was 6.24 in test [1], 6.69 in test [2] and less than 4.30 in test [3].
Take `CCc1c(-c2ccc(OC)c(OC)c2)[nH]c2ccc(-c3noc(CCN(C)C)n3)cc12` [Example 454, 2-(3-(2-(3,4-dimethoxyphenyl)-3-ethyl-1H-indol-5-yl)-1,2,4-oxadiazol-5-yl)-N,N-dimethylethan-1-amine]: the pIC50 in test [1] is 6.51; in test [2] it was 7.72; in test [3] it was 4.95.
In the same order, the values of `CCc1c(-c2ccc(OC)c(OC)c2)[nH]c2ccc(-c3noc(CCC4CCNCC4)n3)cc12` [Example 447, 3-(2-(3,4-dimethoxyphenyl)-3-ethyl-1H-indol-5-yl)-5-(2-(piperidin-4-yl)ethyl)-1,2,4-oxadiazole] are 6.13, 6.70 and 5.46.
In the same order, the values of `CC(C)c1c(-c2ccc3ncnn3c2)[nH]c2ccc(-c3nnc([C@@H]4CCCNC4)o3)cc12` [Example 227, (R)-2-(2-([1,2,4]triazolo[1,5-a]pyridin-6-yl)-3-isopropyl-1H-indol-5-yl)-5-(piperidin-3-yl)-1,3,4-oxadiazole] are 7.21, 8.03 and 6.05.
For the molecule `COc1ccc(-c2[nH]c3ccc(-c4ccnc(N5CCN(C6CCCC6)CC5)c4)cc3c2C(C)C)cc1OC` [Example 426, 5-(2-(4-cyclopentylpiperazin-1-yl)pyridin-4-yl)-2-(3,4-dimethoxyphenyl)-3-isopropyl-1H-indole], the pIC50 in test [1] is 6.08; in test [2], 7.25; in test [3] it was 5.84.
In the same order, the values of `Cc1cc(-c2[nH]c3ccc(-c4ccnc(N5CCNCC5)c4)cc3c2C(C)C)ccn1` [Example 273, 3-isopropyl-2-(2-methylpyridin-4-yl)-5-(2-(piperazin-1-yl)pyridin-4-yl)-1H-indole] are 7.35, 8.24 and 6.10.
`CC(C)c1c(-c2ccnc3[nH]ncc23)[nH]c2ccc(-c3nnc(CNC45CC6CC(CC(C6)C4)C5)o3)cc12` [Example 151, N-((5-(3-isopropyl-2-(1H-pyrazolo[3,4-b]pyridin-4-yl)-1H-indol-5-yl)-1,3,4-oxadiazol-2-yl)methyl)adamantan-1-amine]: the pIC50 in test [1] is 5.27; in test [2], 7.74; in test [3], less than 4.30.
Consider `CC(C)c1c(-c2ccnc3[nH]ncc23)[nH]c2ccc(-c3cccc(CO)c3)cc12` [Example 414, (3-(3-isopropyl-2-(1H-pyrazolo[3,4-b]pyridin-4-yl)-1H-indol-5-yl)phenyl)methanol], for which the pIC50 is 6.11 in test [1], 7.20 in test [2] and less than 4.30 in test [3].
In the same order, the values of `CCc1c(-c2ccc(OC)c(OC)c2)[nH]c2ccc(-c3cccnc3)cc12` [Example 466, 2-(3,4-dimethoxyphenyl)-3-ethyl-5-(pyridin-3-yl)-1H-indole] are 5.41, 6.43 and less than 4.30.
In the same order, the values of `Cc1cc(-c2[nH]c3ccc(-c4nc(C(=O)NCC(C)CN)co4)cc3c2C(C)C)cc(C)n1` (stereo not drawn) [Example 277, N-(3-amino-2-methylpropyl)-2-(2-(2,6-dimethylpyridin-4-yl)-3-isopropyl-1H-indol-5-yl)oxazole-4-carboxamide] are 7.68, 7.89 and 5.97.
For `Cc1cc(-c2[nH]c3ccc(-c4ccnc(N)c4)cc3c2C(C)C)ccn1` [Example 200, 4-(3-isopropyl-2-(2-methylpyridin-4-yl)-1H-indol-5-yl)pyridin-2-amine] the same measures were 8.02, 8.01 and 6.14.
On to `COc1ccc(-c2[nH]c3ccc(-c4nnc(C5CCNCC5)[nH]4)cc3c2C(C)C)cc1OC` [Example 124, 2-(3,4-dimethoxyphenyl)-3-isopropyl-5-(5-(piperidin-4-yl)-4H-1,2,4-triazol-3-yl)-1H-indole], for which the pIC50 in test [1] is 6.74; in test [2], 6.97; in test [3] it was 5.04.
In the same order, the values of `COc1ccc(-c2[nH]c3ccc(-c4ccc(N5CCCN(CCO)CC5)cc4)cc3c2C(C)C)cc1OC` [Example 379, 2-(4-(4-(2-(3,4-dimethoxyphenyl)-3-isopropyl-1H-indol-5-yl)phenyl)-1,4-diazepan-1-yl)ethan-1-ol] are 6.16, 7.15 and 5.53.

Usually pIC50 stands for the negative decadic logarithm of the IC50, by convention in mol/L.
